From patent US10370368B2, “Aryl acylsulfonamides as BLT1 antagonists” (Merck Sharp & Dohme Corp., priority 2015, dated 2019) come the findings set out here.

Chain of human BLT1 receptor (Q15722 whole entry): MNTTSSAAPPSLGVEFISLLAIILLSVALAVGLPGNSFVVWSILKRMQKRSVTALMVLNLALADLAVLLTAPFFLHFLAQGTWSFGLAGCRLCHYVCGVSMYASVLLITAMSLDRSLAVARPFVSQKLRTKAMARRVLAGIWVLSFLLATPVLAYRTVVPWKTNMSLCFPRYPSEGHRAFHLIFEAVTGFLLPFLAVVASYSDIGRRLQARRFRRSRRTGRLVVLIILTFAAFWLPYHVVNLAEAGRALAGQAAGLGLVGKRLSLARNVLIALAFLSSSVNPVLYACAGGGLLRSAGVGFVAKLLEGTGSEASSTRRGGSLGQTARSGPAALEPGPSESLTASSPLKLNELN

This assay has as its target human BLT1 receptor (Homo sapiens (Human), UniProt Q15722). As to the kind of experiment: BLT-1 cAMP Assay. The settings on record: antagonist mode; HEK293 cells recombinantly expressing human BLT1 receptor; forskolin 4 μM and LTB4 2 nM. The format is cell-based. As for the experimental part:
The ability of compounds to antagonize the human BLT1 receptor was determined using a kit to measure changes in intracellular cyclic AMP levels (cAMP dynamic assay kit, Cisbio Cat. No. 62AM4PEC). HEK293 cells recombinantly expressing human BLT1 receptor, previously frozen in Recovery Medium (Life Technologies, Cat. No. 12648-010) were thawed and diluted into assay medium (HBSS (Hyclone SH 30268.01), 20 mM HEPES (Gibco 15630-106), 800 μM IBMX (Sigma 15879), 0.1% DTPA BSA (Perkin Elmer CR84-100)). The cell suspension was centrifuged at 200×g for 10 min and then resuspended in fresh assay medium to a density of 2.5×10^5 cells/mL. A Labcyte Echo 550 acoustic dispenser was used to transfer 25 nL of test compound dissolved in DMSO into the wells of a dry 384-well plate (Greiner 784075). All subsequent liquid additions were performed using a BIORAPTR (FRD; Beckman Coulter). Next, 5 μL of cell suspension was added and incubated for 20 min. at 37° C. and 5% CO2 in a humidified plastic tray. To test for agonist activity 5 μL of assay buffer containing forskolin (Sigma F-6886. 4 μM for BLT1) was added and incubated for 30 minutes at 37° C. and 5% CO2 in a humidified plastic tray. To test for antagonist activity 5 μL of assay buffer containing forskolin (Sigma F-6886. 4 μM for BLT1) and either LTB4 (Sigma Aldrich L0517; 2 nM BLT1) was added and incubated for 30 minutes at 37° C. and 5% CO2 in a humidified plastic tray.
The levels of cAMP were detected using the CisBio kit following the manufacturer's instructions: cAMP-d2 vial was reconstituted with distilled water and then diluted accordingly with conjugate & lysis buffer. 5 μL of cAMP-d2 working solution was added to all of the wells of the assay plate. cAMP-Cryptate vial was reconstituted with distilled water and then diluted accordingly with conjugate & lysis buffer. 5 μL of cAMP-Cryptate working solution were added to the assay plate. The assay plate was shaken for 3 minutes and incubated at room temperature for 45 minutes, then read on Perkin Elmer Envision. cAMP standard curve and fit data were plotted using a 4 parameter dose response curve fitting algorithm to fit curve. A 4-parameter curve fit (Max, min, log EC50 and slope) was used to transform fluorescent 665 nm/615 nm ratio signal to cAMP concentration. After normalization to treated and untreated controls, the percent effect of signal at each compound concentration was calculated. The plot of percent effect versus the log of compound concentration was fit with a 4-parameter concentration response equation to calculate EC50 values. Compound concentrations tested were 10 000, 3 333, 1 111, 370.4, 123.4, 41.2, 13.7, 4.6, 1.5 and 0.5 nM with 0.25% residual DMSO.
What is called EC50 is the concentration that produces a half-maximal response. With `CC(C)(C)S(=O)(=O)NC(=O)c1ccccc1-c1ccc2c(c1)OC[C@@H](Cc1ccc(-c3cncs3)cn1)[C@@H]2O` (racemic) [Example 4, N-(tert-Butylsulfonyl)-2-((rac-trans)-4-hydroxy-3-((5-(thiazol-5-yl)pyridin-2-yl)methyl)chroman-7-yl)benzamide], the EC50 is 8 nM. Turning to `Cc1ncc(-c2ccc(C[C@@H]3COc4cc(-c5ccccc5C(=O)NS(=O)(=O)C(C)(C)C)ccc4[C@H]3O)nc2)s1` (racemic) [Example 7, N-(tert-Butylsulfonyl)-2-((rac-trans)-4-hydroxy-3-((5-(2-methylthiazol-5-yl)pyridin-2-yl)methyl)chroman-7-yl)benzamide], the EC50 was determined as 5 nM. Consider `O=C(NS(=O)(=O)C1CC1)c1ccccc1-c1ccc2c(c1)OC[C@@H](Cc1ccc(-c3cncs3)cn1)[C@@H]2O` (racemic) [Example 8, N-(Cyclopropylsulfonyl)-2-((rac-trans)-4-hydroxy-3-((5-(thiazol-5-yl)pyridin-2-yl)methyl)chroman-7-yl)benzamide], for which the EC50 came to 12 nM.

Regarding `Cc1ncc(-c2ccc(C[C@@H]3COc4cc(-c5ccccc5C(=O)NS(=O)(=O)C5CC5)ccc4[C@H]3O)nc2)s1` (racemic) [Example 9, N-(Cyclopropylsulfonyl)-2-((rac-trans)-4-hydroxy-3-((5-(2-methylthiazol-5-yl)pyridin-2-yl)methyl)chroman-7-yl)benzamide], the EC50 came to 9 nM. Turning to `CC1(S(=O)(=O)NC(=O)c2ccccc2-c2ccc3c(c2)OC[C@H](Cc2ccc(-c4cncs4)cn2)[C@H]3O)CC1` (single isomer, unassigned) [Example 2, 2-((3S, 4R or 3R, 4S)-4-Hydroxy-3-((5-(thiazol-5-yl)pyridin-2-yl)methyl)chroman-7-yl)-N-((1-methylcyclopropyl)sulfonyl)benzamide], the EC50 is 6 nM. For `CC1(S(=O)(=O)NC(=O)c2ccccc2-c2ccc3c(c2)OC[C@@H](Cc2ccc(-c4cncs4)cn2)[C@@H]3O)CC1` (single isomer, unassigned) [Example 3, 2-((3R, 4S or 3S, 4R)-4-Hydroxy-3-((5-(thiazol-5-yl)pyridin-2-yl)methyl)chroman-7-yl)-N-((1-methylcyclopropyl)sulfonyl)benzamide] the value was 78 nM; for `CC(C)(C)S(=O)(=O)NC(=O)c1ccccc1-c1ccc2c(c1)OC[C@H](Cc1ccc(-c3cncs3)cn1)[C@H]2O` (single isomer, unassigned) [Example 5, N-(tert-Butylsulfonyl)-2-((3S, 4R or 3R, 4S)-4-hydroxy-3-((5-(thiazol-5-yl)pyridin-2-yl)methyl)chroman-7-yl)benzamide], 5 nM.

Consider `CC(C)(C)S(=O)(=O)NC(=O)c1ccccc1-c1ccc2c(c1)OC[C@@H](Cc1ccc(-c3cncs3)cn1)[C@@H]2O` (single isomer, unassigned) [Example 6, N-(tert-Butylsulfonyl)-2-((3R, 4S or 3S, 4R)-4-hydroxy-3-((5-(thiazol-5-yl)pyridin-2-yl)methyl)chroman-7-yl)benzamide], for which the EC50 was found to be 128 nM. Turning to `Cc1ncc(-c2ccc(C[C@H]3COc4cc(-c5ccccc5C(=O)NS(=O)(=O)C5CC5)ccc4[C@@H]3O)nc2)s1` (single isomer, unassigned) [Example 10, N-(Cyclopropylsulfonyl)-2-((3S,4R or 3R,4S)-4-hydroxy-3-((5-(2-methylthiazol-5-yl)pyridin-2-yl)methyl)chroman-7-yl)benzamide], the concentration for a half-maximal effect (EC50) was found to be 6 nM.

In the case of `Cc1ncc(-c2ccc(C[C@@H]3COc4cc(-c5ccccc5C(=O)NS(=O)(=O)C5CC5)ccc4[C@H]3O)nc2)s1` (single isomer, unassigned) [Example 11, N-(Cyclopropylsulfonyl)-2-((3R,4S or 3S,4R)-4-hydroxy-3-((5-(2-methylthiazol-5-yl)pyridin-2-yl)methyl)chroman-7-yl)benzamide], the EC50 is 391 nM. The figure for `CC1(S(=O)(=O)NC(=O)c2ccccc2-c2ccc3c(c2)OC[C@@H](Cc2ccc(-c4cncs4)cn2)[C@@H]3O)CC1` [Example 1, 2-((Rac-trans)-4-Hydroxy-3-((5-(thiazol-5-yl)pyridin-2-yl)methyl)chroman-7-yl)-N-((1-methylcyclopropyl)sulfonyl)benzamide] is 6 nM.
